The values below come from PMC6646369, “A new bioavailable fenretinide formulation with antiproliferative, antimetabolic, and cytotoxic effects on solid tumors” (Cell Death & Disease, 2019).

≈ marks a conversion by molar mass, not a printed value.

Series [1] is described as follows: Plasma pharmacokinetics of fenretinide in mice. It counts as in vivo, CD1 female mice. As to the method:
The experiments were performed in CD1 female mice, 7 weeks of age, (body weight 25 ± 2 g) obtained from Envigo RMS SrL (Udine, Italy). Mice were maintained under specific-pathogen-free conditions with constant temperature and humidity, according to the institutional guidelines of the Istituto Superiore di Sanità Animal Care Committee. Animal experimentation was conducted in conformance with the following laws, regulations, and policies governing the care and use of laboratory animals: Italian Governing Law (D. l. 26/2014; Authorization n.19/2008-A issued March 6, 2008 by the Ministry of Health). The pharmacokinetics of NanoFEN, administered by oral or intravenous route, was investigated in mice receiving the formulation at doses corresponding to 5 mg/kg of fenretinide. The intravenous administration was carried out by injection in the tail vein of an intravenous bolus of NanoFEN dissolved in water or PureFEN suspended in a mixture of ethanol 10 % in saline as a comparison. For the oral administration the mice were gavaged the with NanoFEN dissolved in water or with the reconstituted content of the NCI capules, i.e., fenretinide (100 mg) in corn oil (704 mg) and Polysorbate 80 (60 mg) as a comparison. After the intravenous or oral treatments, a series of blood samples were taken at 15 and 30 min and at 1, 2, 4, 8, 10, 24 and 48 h. Blood was collected in heparinized tubes from the retro-orbital plexus of the mice under isoflurane anesthesia. To obtain plasma, blood samples were centrifuged at 4000 rpm for 10 min at 4 °C. The samples were stored at −20 °C until analysis. The total concentration of fenretinide in plasma of mice was determined according to a method previously described. Briefly, aliquot of 200 μl of each plasma sample was added to 400 μl of Acetonitrile (CH3CN) containing 125 μg/mL Butylated hydroxytoluene (BHT), and the mixture was vortexed and centrifuged to pellet the precipitated proteins. The recovered supernatants were analysed on a liquid chromatograph (Perkin-Elmer, Norwall, CT) fitted with a C18 (50 mm × 2.0 mm, 5 μm) reverse-phase column and a C18 precolumn (Perkin-Elmer, Milan, Italy). The mobile phase consisted of CH3CN:H2O:CH3COOH (75:2:2, v:v:v) delivered at a flow rate of 2 mL/min. Detection was carried out with a Perkin-Elmer LC95 absorbance detector at 362 nm. N-(4-ethoxyphenyl)-retinamide (EPR) was used as internal standard. For the quantitative evaluation, reference standard curves were set up in control mouse plasma with different known amounts of NanoFEN or PureFEN. The measured fenretinide concentration-vs-time data were elaborated by non-compartmental analysis (WinNonLin software v3) to obtain the main pharmacokinetic parameters of NanoFEN.

Series [2] can be described thus: Aqueous solubility of fenretinide (saturation in water, spectrophotometric at 360 nm). In kind it is physicochemical. The note with it: water at 25 °C; read-out: Solubility in H2O. As to the method: The first step of NanoFEN preparation involved fenretinide salification to raise its aqueous solubility to the extent required for complexation with cyclodextrins. […] The complex was analyzed by ^1H-NMR to detect the presence of chemical shift changes with respect to the free drug as indicators of fenretinide inclusion into the cyclodextrin hydrophobic cavity. […] The ^1H-NMR spectra were recorded by an Inova 600 MHz High Resolution NMR Spectrometer. The amount of fenretinide incorporated into the complex was spectrophotometrically determined in solutions obtained by dissolving known amounts of the solid complex in a water:ethanol (1:1, v-v) mixture with the aim to dissociate the drug from the complex and maintain its solubilization in the aqueous phase in the presence of ethanol. The hydro-alcoholic solutions were analyzed for their fenretinide content at the maximum wavelength of the fenretinide absorption (360 nm). The aqueous solubility of fenretinide complexed with 2-hydroxypropyl-β-cyclodextrin was measured in comparison with the pure drug. […] After filtration the saturated solutions were spectrophotometrically analysed at 360 nm for their fenretinide content.

Setting [3] is: mouse, iv, CD1 female mice, 5 mg/Kg fenretinide, plasma.
Where [4] appears, read: mouse, plasma, iv, CD1 female mice, 5 mg/Kg fenretinide.

As to `CC1=C(/C=C/C(C)=C/C=C/C(C)=C/C(=O)Nc2ccc(O)cc2)C(C)(C)CCC1` [PureFEN, N-(4-Hydroxyphenyl) retinamide], in series [1] (CD1 female mice, 5 mg/Kg fenretinide, i.v.), the HL is given as 7.87 h. The same compound registered an AUC in series [1] (female, CD1, mouse, iv, Fig. 1e, single administration of 5 mg/kg, plasma) of 6570 ng·h/mL. In series [1] (setting [3]), this compound came in with a total exposure AUC(0-inf) of 6570 ng·h/mL, an exposure AUC(0-t) of 6420 ng·h/mL and a peak concentration (Cmax) of 4130 ng/mL. For the same compound, in series [1] (setting [4]), the distribution volume (Vd) is 6.52 L/kg and the clearance is 9.57 mL/min/kg. In addition, the k el in series [1] (mouse, plasma, iv, CD1 female mice, 5 mg/Kg fenretinide, i.v., read-out: Ke (converted)) was 2.44e-05 s⁻¹. For the same compound, in series [2], the solubility at 12 h is 1.71 µg/mL (≈ 4.37 µM).

As a reminder, the AUC is concentration integrated over time. A low value points to less exposure. As a reminder, the AUC(0-inf) is total exposure, with the tail of the curve extrapolated. Read a low AUC(0-inf) as low exposure. For orientation: AUC(0-t) means exposure summed from dosing to a finite time, without extrapolation to infinity. Read a high AUC(0-t) as high exposure. One may read the Cmax as the highest concentration seen after dosing. The Vd is the apparent volume that relates the amount in the body to the concentration in plasma or blood. A low value points to confinement near the circulation. The term clearance denotes the volume of plasma or blood freed of the substance per unit of time. A high value points to efficient removal. For orientation: solubility means how much of the substance goes into solution per volume.
